In patent US4985428A, “Isoxazoles with nootropic activity” (Zambon Group S.p.A., priority 1987, dated 1991) one finds ED50 data, which are given here for ten compounds.

By ED50 is commonly meant the midpoint of the dose-response relation.

Each structure is given as a SMILES string. Like-named read-outs stand apart in the source and are kept apart here.

The assay has as its system electroshock (ECS) amnesia in rat. As to the kind of experiment: electroshock (ECS) amnesia test in rat. The class given is in vivo. The settings on record: male rats, dose improving retention time by 50% of Δt vs ECS control. The procedure: The compounds of formula I are active on central nervous system and they can be used in pharmaceutical field as nootropics. By the electroshock (ECS) amnesia test, described in example 8, in rat the pharmacological activity of the compounds object of the present invention was evaluated in comparison with the activity of Piracetam and Aniracetam. Pharmacodynamic evaluation: electroshock (ECS) amnesia test in rat Male rats weighing 130-150 g and fasting for at least 12 hours before the beginning of the test were used. The test consisted in two experiments with a resting interval of 24 hours between them. First experiment: training session The animals were trained to associate the passage from a light partition to a dark one, in a suitable box, with a noxious stimulation that is an electric stimulation through an electrified grid (foot-shock: 1 mA for 10 seconds). Second experiment: retention session The ability of the animals to remember was evaluated as the time utilized to repeat the passage through the partitions (retention time). Evaluation of the retention time in control groups of animals The test was carried out first on two groups of animals as control. […] Fixing 60 seconds as time-limit for performing the second experiment, the average time (retention time) utilized for the passage was 54 seconds for the control and 32 seconds for the ECS control. Evaluation of the retention time in groups of treated animals Groups of 20 rats underwent the training session, the treatment for inducing amnesia and the retention session after administration of the compounds object of the present invention and of the reference compounds, Piracetam and Aniracetam. The administration was carried out 30 minutes before the training session in case of intraperitoneal administration (i.p.) and 60 minutes before in case of administration by oral route. At least three doses each compound and each administration route were tested. The difference between the retention time of the control and the retention time of the ECS control was considered as reference (Δt) and it was fixed, as percentage, equal to 100. In the groups of animals which were treated and underwent ECS the activity against amnesia of the compounds object of the present invention was expressed as ED50 that is as the dose of compound able to give an improvement of the retention time equal to 50% of the reference interval (Δt) in comparison with the ECS control.

Where [1] appears, read: ip, intraperitoneal, 30 minutes before training session, read-out: ED50 i.p.
[2] abbreviates: oral route, 60 minutes before training session, read-out: ED50 os.

As for `O=C(O)CCCNC(=O)c1cc(Cl)no1` [Compound 2, N-(3-chloro-5-isoxazolecarbonyl)-4-aminobutyric acid], the ED50 runs as follows: under setting [1], 160 µmol/kg; under setting [2], 260 µmol/kg.

For `COc1ccc(C(=O)N2CCCC2=O)cc1` [Aniracetam, 1-(4-methoxy-benzoyl)-2-pyrrolidinone, reference compound], the ED50 was found to be 353 µmol/kg under setting [1] and 1110 µmol/kg under setting [2].

Turning to `Cc1cc(C(=O)NCCCC(=O)O)on1` [Compound 4, N-(3-methyl-5-isoxazolecarbonyl)-4-aminobutyric acid], the ED50 amounted to 202 µmol/kg under setting [1] and 383 µmol/kg under setting [2].

In the case of `O=C(O)CCCNC(=O)c1cc(Br)no1` [Compound 1, N-(3-bromo-5-isoxazolecarbonyl)-4-aminobutyric acid], the 50% effective dose (ED50) under setting [1] amounted to 102 µmol/kg and the ED50 under setting [2] came out at 290 µmol/kg.

Regarding `COc1cc(C(=O)NCCCC(=O)O)on1` [Compound 3, N-(3-methoxy-5-isoxazolecarbonyl)-4-aminobutyric acid], the ED50 worked out at 276 µmol/kg under setting [1] and 868 µmol/kg under setting [2].

For the compound `CCOC(=O)CNC(=O)CCCNC(=O)c1cc(Br)no1` [Compound 12, Ethyl N-[N-(3-bromo-5-isoxazolecarbonyl)-4-aminobutyroyl]glicinate], the ED50 is 171 µmol/kg under setting [1] and 1000 µmol/kg under setting [2].

In the case of `O=C(O)CCCNC(=O)CCCNC(=O)c1cc(Br)no1` [Compound 19, N-[N-(3-bromo-5-isoxazolecarbonyl)-4-aminobutyroyl]-4-aminobutyric acid], the ED50 under setting [2] came out at 261 µmol/kg.

Take `O=C(NCCCC(=O)N1CCCC1=O)c1cc(Br)no1` [Compound 21, 1-[N-(3-bromo-5-isoxazolecarbonyl)-4-aminobutyroyl]-2-pyrrolidinone]: the ED50 under setting [2] was found to be 254 µmol/kg.

In the case of `O=C(NCCCC(=O)N1CCCC1)c1cc(Br)no1` [Compound 8, N-[4-oxo-4-(1-pyrrolidinyl)butyl]-3-bromo-5-isoxazolecarboxamide], the median effective dose (ED50) was 25 µmol/kg under setting [1] and 80 µmol/kg under setting [2].

Consider `NC(=O)CN1CCCC1=O` [Piracetam, 2-pyrrolidinoneacetamide, reference compound], for which the 50% effective dose (ED50) was determined as 329 µmol/kg under setting [1] and 1550 µmol/kg under setting [2].
